Test results published in PMC7179302, “Lead Optimization of Dehydroemetine for Repositioned Use in Malaria” (Antimicrobial Agents and Chemotherapy, 2020).
Where a name gives a salt, the structure may show the parent alone.

Experiments:
Format in all cases: cell-based
[1] = test system: male gametocytes in P. falciparum strain NF54; test: Dual gamete formation assay, male gametocytes (exflagellation); conditions: Plasmodium falciparum, 48 h incubation
Protocol: (§1) A bioassay was performed to assess the malaria transmission-blocking potential of compounds on P. falciparum strain NF54 by estimating their ability to prevent male mature gametocytes from progressing to male microgametes or/and to inhibit female gamete activation, as indicators of gametocyte functionality. The NF54 strain was selected for its increased ability to produce gametocytes under in vitro conditions ([45]). The activation of male gametocytes into mature microgametes is evaluated by the process of exflagellation (extrusion of rapidly waving flagellum-like microgametes from the infected erythrocyte). The activation of female gametocytes is evaluated based on the specific expression of the P. falciparum s25 (Pfs25) protein at the surface of the female activated gametes ([46]). […]
(§2) Asexual cultures of P. falciparum strain NF54 parasites were used to seed gametocyte cultures at 0.5% parasitemia, 4% hematocrit in a 50-ml total volume under 3% O2, 5% CO2, 92% N2 gas. […] Plates were analyzed to detect exflagellation centers. […] Then, plates were analyzed to detect female activated gametes. Activation of male gametes was detected based on light changes provoked by flagellar movements that caused movement of surrounding cells. A 10-frame video was taken and then analyzed to determine these changes in cell position based on changes in pixels. […]

[2] = test system: female gametocytes in P. falciparum strain NF54; test: Dual gamete formation assay, female gametocytes (Pfs25 expression); conditions: Plasmodium falciparum, 48 h incubation
Protocol: as §1, §2

hERG potassium channel = biological target: T1, hERG potassium channel (Homo sapiens, UniProt Q12809); test: hERG channel inhibition assay (CHO cells, whole-cell voltage clamp, Cyprotex); conditions: for selectivity ratio at 300 s / inhibition at 300 s, 0.016 µM / inhibition at 300 s, 0.08 µM / inhibition at 300 s, 0.4 µM / inhibition at 300 s, 2 µM / inhibition at 300 s, 10 µM / inhibition at 300 s, 50 µM: human; for selectivity ratio at 300 s: CHO cells expressing the hERG potassium channel, read-out: Selectivity index, IC50 hERG/IC50 parasites
T1 construct: host or cells: Chinese hamster ovary (CHO) cells
Protocol: For each replicate, the hERG response was calculated using the following equation: % hERG response = post-compound-application current (nA)/pre-compound-application current (nA) × 100.
The experiment to test the potential of emetine, (−)-R,S-dehydroemetine, and (−)-S,S-dehydroisoemetine to inhibit the hERG channel was outsourced to Cyprotex, UK. One-hundred-microliter amounts of a 20 mM concentration of each of the three compounds in DMSO was provided to Cyprotex. […] Chinese Hamster ovary cells expressing the hERG potassium channel were dispensed into 384-well planar arrays, and hERG tail currents were measured by whole-cell voltage clamping. Amphotericin B was used as a perforating agent that was circulated underneath the PatchPlate to gain electrical access to the cell. The pre-compound-application hERG current was measured. Emetine, (−)-R,S-dehydroemetine, and (−)-S,S-dehydroisoemetine in ranges of concentrations were then added to the cells, and a second recording of the hERG current was made. The test compound was left in contact with the cells for 300 s before currents were recorded. […] All buffers, cell suspensions, and drug compound solutions were at room temperature. The percentage of change in hERG current was measured and used to calculate an IC50 value.
Each concentration was tested in 4 replicate wells on the PatchPlate (maximum of 24 data points). Filters were applied to ensure that only acceptable cells were used to assess hERG inhibition.

T1 sequence (Q12809 whole entry): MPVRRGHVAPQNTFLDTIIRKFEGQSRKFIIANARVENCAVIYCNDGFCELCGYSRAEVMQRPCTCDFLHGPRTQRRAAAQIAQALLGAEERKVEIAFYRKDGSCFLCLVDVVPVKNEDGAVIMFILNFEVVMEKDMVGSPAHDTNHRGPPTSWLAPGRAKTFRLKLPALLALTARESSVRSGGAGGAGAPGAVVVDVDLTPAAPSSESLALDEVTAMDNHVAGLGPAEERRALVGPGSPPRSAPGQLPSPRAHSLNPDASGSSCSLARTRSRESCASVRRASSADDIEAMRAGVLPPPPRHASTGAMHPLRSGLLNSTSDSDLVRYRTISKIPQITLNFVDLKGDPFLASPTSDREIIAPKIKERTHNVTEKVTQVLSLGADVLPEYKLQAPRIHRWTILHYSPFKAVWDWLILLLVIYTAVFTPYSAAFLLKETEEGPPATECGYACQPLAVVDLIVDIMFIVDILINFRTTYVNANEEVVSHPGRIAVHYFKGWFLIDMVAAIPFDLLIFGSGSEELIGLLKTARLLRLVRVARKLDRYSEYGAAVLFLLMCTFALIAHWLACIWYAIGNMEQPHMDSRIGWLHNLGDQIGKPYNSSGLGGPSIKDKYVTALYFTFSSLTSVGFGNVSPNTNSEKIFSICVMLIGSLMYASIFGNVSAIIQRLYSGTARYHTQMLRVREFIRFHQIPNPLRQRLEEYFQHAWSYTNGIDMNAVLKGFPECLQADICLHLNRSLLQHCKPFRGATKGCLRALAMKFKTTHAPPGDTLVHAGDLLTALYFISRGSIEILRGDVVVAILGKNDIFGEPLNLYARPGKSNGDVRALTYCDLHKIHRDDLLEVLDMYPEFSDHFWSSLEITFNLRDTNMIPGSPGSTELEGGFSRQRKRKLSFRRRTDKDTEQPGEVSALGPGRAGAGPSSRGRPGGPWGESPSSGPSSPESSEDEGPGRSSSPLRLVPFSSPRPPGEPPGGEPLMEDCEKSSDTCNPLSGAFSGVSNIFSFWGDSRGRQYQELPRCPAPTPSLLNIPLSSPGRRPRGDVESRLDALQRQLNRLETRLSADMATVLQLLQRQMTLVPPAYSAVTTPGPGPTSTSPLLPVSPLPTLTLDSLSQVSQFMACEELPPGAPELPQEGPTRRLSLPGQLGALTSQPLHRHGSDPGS

Structure (SMILES)	IC50 [1] [µM]	IC50 [2] [µM]	IC50 (hERG potassium channel) [µM]	hERG channel inhibition (in words) (hERG potassium channel)	selectivity ratio at 300 s (hERG potassium channel)	inhibition at 300 s, 0.016 µM (hERG potassium channel) [%]	inhibition at 300 s, 0.08 µM (hERG potassium channel) [%]	inhibition at 300 s, 0.4 µM (hERG potassium channel) [%]	inhibition at 300 s, 2 µM (hERG potassium channel) [%]	inhibition at 300 s, 10 µM (hERG potassium channel) [%]	inhibition at 300 s, 50 µM (hERG potassium channel) [%]
CCC1=C(C[C@H]2NCCc3cc(OC)c(OC)cc32)C[C@H]2c3cc(OC)c(OC)cc3CCN2C1 [(−)-R,S-dehydroemetine, (S)-2-((R)-6,7-dimethoxy-1,2,3,4-tetrahydro-isoquinolin-1-ylmethyl)-3-ethyl-9,10-dimethoxy-1,6,7,11b-tetrahydro-4H-pyrido[2,1-a]isoquinoline * dihydrobromide]	0.43	1.04	19.3	not an hERG channel inhibitor	> 271	7.79	6.34	12.7	7.21	39.4	61.4
CCC1=C(C[C@@H]2NCCc3cc(OC)c(OC)cc32)C[C@H]2c3cc(OC)c(OC)cc3CCN2C1 [(−)-S,S-dehydroisoemetine, (S)-2-((S)-6,7-dimethoxy-1,2,3,4-tetrahydro-isoquinolin-1-ylmethyl)-3-ethyl-9,10-dimethoxy-1,6,7,11b-tetrahydro-4H-pyrido[2,1-a]isoquinoline * dihydrobromide]	> 10	> 10	2.99	potent inhibitor	1.48	8.13	4.61	9.33	36	70.7	96.9
